{
  "source": "patent US9346812B2",
  "about": "“Substituted pyrrolopyrimidine compounds, compositions thereof, and methods of treatment therewith” (Signal Pharmaceutical LLC, priority 2013, dated 2016)",
  "system": "CAL51 cell proliferation",
  "assay": "Cell Titer Glo Proliferation Assay (CAL51)",
  "assay_type": "cell-based, human",
  "settings": "Homo sapiens, CAL-51; CAL51 cell proliferation, 72 h, Cell Titer Glo luminescence; read-out: Act. Level",
  "how_it_was_run": "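Viability is measured by CellTiter-Glo luminescence after 72 h of compound exposure. CAL51 cells were seeded in growth medium with 10% FBS and 2 mM glutamine, cultured overnight, then dosed with compound dilutions, vehicle held at 0.2% DMSO.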",
  "data": [
    {"smiles": "Cc1cc(C(=O)N(C)C)ccc1Nc1nc(OC2CCOCC2)c2c(-c3ncco3)c[nH]c2n1", "note": "[Example 115, N,N,3-trimethyl-4-(5-(oxazol-2-yl)-4-(tetrahydro-2H-pyran-4-yloxy)-7H-pyrrolo[2,3-d]pyrimidin-2-ylamino)benzamide]", "values": [
      {"measurement": "IC50", "value": "0.4 to 1", "unit": "µM"}
    ]},
    {"smiles": "Cc1cc(C(=O)N(C)C)ccc1Nc1nc(OC2CCOCC2)c2c(-c3ccc4nc(N)[nH]c4c3)c[nH]c2n1", "note": "[Example 116, 4-(5-(2-amino-1H-benzo[d]imidazol-6-yl)-4-(tetrahydro-2H-pyran-4-yloxy)-7H-pyrrolo[2,3-d]pyrimidin-2-ylamino)-N,N,3-trimethylbenzamide]", "values": [
      {"measurement": "IC50", "value": "< 0.1", "unit": "µM"}
    ]},
    {"smiles": "Cc1cc(-c2c[nH]c3nc(Nc4ccc(C(=O)N(C)C)cc4C)nc(OC4CCOCC4)c23)ccn1", "note": "[Example 117, N,N,3-trimethyl-4-(5-(2-methyl-pyridin-4-yl)-4-(tetrahydro-2H-pyran-4-yloxy)-7H-pyrrolo[2,3-d]pyrimidin-2-ylamino)benzamide]", "values": [
      {"measurement": "IC50", "value": "< 0.1", "unit": "µM"}
    ]},
    {"smiles": "CNC(=O)c1ccc(Nc2nc(OC)c3c(-c4ccc(OC)nc4)c[nH]c3n2)c(OC)c1", "note": "[Example 118, 3-methoxy-4-(4-methoxy-5-(6-methoxypyridin-3-yl)-7H-pyrrolo [2,3-d]pyrimidin-2-ylamino)-N-methylbenzamide]", "values": [
      {"measurement": "IC50", "value": "0.1 to 0.4", "unit": "µM"}
    ]},
    {"smiles": "CNC(=O)c1ccc(Nc2nc(OC3CCOCC3)c3c(-c4ccc(OC)nc4)c[nH]c3n2)c(OC)c1", "note": "[Example 119, 3-methoxy-4-(5-(6-methoxypyridin-3-yl)-4-(tetrahydro-2H-pyran-4-yloxy)-7H-pyrrolo[2,3-d]pyrimidin-2-ylamino)-N-methylbenzamide]", "values": [
      {"measurement": "IC50", "value": "< 0.1", "unit": "µM"}
    ]},
    {"smiles": "COCCNC(=O)c1ccc(Nc2nc(OC3CCOCC3)c3c(-c4ccc5nc(C)oc5c4)c[nH]c3n2)c(OC)c1", "note": "[Example 120, 3-methoxy-N-(2-methoxyethyl)-4-(5-(2-methylbenzo[d]oxazol-6-yl)-4-(tetrahydro-2H-pyran-4-yloxy)-7H-pyrrolo[2,3-d]pyrimidin-2-ylamino)benzamide]", "values": [
      {"measurement": "IC50", "value": "< 0.1", "unit": "µM"}
    ]},
    {"smiles": "Cc1nc2ccc(-c3c[nH]c4nc(Nc5ccc(C(=O)N(C)C)cc5C)nc(O[C@@H]5CCCOC5)c34)cc2o1", "note": "[Example 121, (R)-N,N,3-trimethyl-4-(5-(2-methylbenzo[d]oxazol-6-yl)-4-(tetrahydro-2H-pyran-3-yloxy)-7H-pyrrolo[2,3-d]pyrimidin-2-ylamino)benzamide]", "values": [
      {"measurement": "IC50", "value": "0.1 to 0.4", "unit": "µM"}
    ]},
    {"smiles": "CNC(=O)c1ccc(Nc2nc(OC3CCOCC3)c3c(-c4cn[nH]c4)c[nH]c3n2)c(OC)c1", "note": "[Example 122, 4-(5-(1H-pyrazol-4-yl)-4-(tetrahydro-2H-pyran-4-yloxy)-7H-pyrrolo[2,3-d]pyrimidin-2-ylamino)-3-methoxy-N-methylbenzamide]", "values": [
      {"measurement": "IC50", "value": "< 0.1", "unit": "µM"}
    ]},
    {"smiles": "CNC(=O)c1ccc(-c2c[nH]c3nc(Nc4ccc(C(=O)NC)cc4OC)nc(OC4CCOCC4)c23)cc1", "note": "[Example 123, 3-methoxy-N-methyl-4-(5-(4-(methylcarbamoyl)phenyl)-4-(tetrahydro-2H-pyran-4-yloxy)-7H-pyrrolo[2,3-d]pyrimidin-2-ylamino) benzamide]", "values": [
      {"measurement": "IC50", "value": "< 0.1", "unit": "µM"}
    ]},
    {"smiles": "CNC(=O)c1ccc(-c2c[nH]c3nc(Nc4ccc(C(=O)NC)cc4OC)nc(OC)c23)cc1", "note": "[Example 124, 3-methoxy-4-(4-methoxy-5-(4-(methylcarbamoyl)phenyl)-7H-pyrrolo[2,3-d]pyrimidin-2-ylamino)-N-methylbenzamide]", "values": [
      {"measurement": "IC50", "value": "0.1 to 0.4", "unit": "µM"}
    ]},
    {"smiles": "CNC(=O)c1ccc(Nc2nc(OC(C)C)c3c(-c4ccc5nc(C)oc5c4)c[nH]c3n2)c(OC)c1", "note": "[Example 125, 4-(4-isopropoxy-5-(2-methylbenzo[d]oxazol-6-yl)-7H-pyrrolo[2,3-d]pyrimidin-2-ylamino)-3-methoxy-N-methylbenzamide]", "values": [
      {"measurement": "IC50", "value": "< 0.1", "unit": "µM"}
    ]},
    {"smiles": "CNC(=O)c1ccc(Nc2nc(OC3CCOCC3)c3c(-c4ccc(N(C)C)nc4)c[nH]c3n2)c(OC)c1", "note": "[Example 126, 4-(5-(6-(dimethylamino)pyridin-3-yl)-4-(tetrahydro-2H-pyran-4-yloxy)-7H-pyrrolo[2,3-d]pyrimidin-2-ylamino)-3-methoxy-N-methylbenzamide]", "values": [
      {"measurement": "IC50", "value": "0.4 to 1", "unit": "µM"}
    ]}
  ]
}
